According to PubChem BioAssay (NCI):
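These data come from cells grown in 96-well plates and exposed to compound for 48 hours at five concentrations. At the TGI there is no net growth.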

Columns and labels:
Assay in all cases: NCI tumour cell line growth inhibition, 48 h
MDA-N = test system: MDA-N
SN12C renal = test system: SN12C renal
EKVX NSCLC = test system: EKVX NSCLC
MDA-MB-231 breast = test system: MDA-MB-231 breast
HCT-15 colon = test system: HCT-15 colon
NCI-H226 lung = test system: NCI-H226 lung
A549 NSCLC = test system: A549 NSCLC
SK-MEL-28 melanoma = test system: SK-MEL-28 melanoma
MCF7 breast = test system: MCF7 breast
SNB-19 CNS = test system: SNB-19 CNS
HOP-92 NSCLC = test system: HOP-92 NSCLC

Compound	TGI (MDA-N)	TGI (SN12C renal)	TGI (EKVX NSCLC)	TGI (MDA-MB-231 breast)	TGI (HCT-15 colon)	TGI (NCI-H226 lung)	TGI (A549 NSCLC)	TGI (SK-MEL-28 melanoma)	TGI (MCF7 breast)	TGI (SNB-19 CNS)	TGI (HOP-92 NSCLC)
Cc1ccc(C(=O)Nc2ccc(CP(=O)(O)O)cc2)cc1NC(=O)Nc1cc(C(=O)Nc2ccc(CP(=O)(O)O)cc2)ccc1C	> 100 µM	> 100 µM	> 100 µM	> 100 µM	> 100 µM	> 100 µM	> 100 µM	> 100 µM	> 100 µM	–	–
N#C/C(N)=C(\C#N)N=CNc1ccccc1N	> 100 µM	> 100 µM	> 100 µM	> 100 µM	> 100 µM	> 100 µM	> 100 µM	> 100 µM	> 100 µM	> 100 µM	–
Cc1cccc(C(O)c2ccccn2)c1O (stereo not given)	> 100 µM	> 100 µM	> 100 µM	> 100 µM	> 100 µM	> 100 µM	> 100 µM	> 100 µM	> 100 µM	> 100 µM	–
O=C1NCN(c2ccccc2)C12CCN(CCCSc1ccc(F)cc1)CC2	–	> 100 µM	> 100 µM	25.2 µM	> 100 µM	> 88 µM	> 100 µM	> 100 µM	> 39.9 µM	> 100 µM	41.6 µM
[O-][n+]1onc2c1-c1nonc1CC2	> 100 µM	> 100 µM	81.6 µM	69.2 µM	> 100 µM	76.3 µM	> 100 µM	> 100 µM	> 100 µM	> 100 µM	–
CN(C)N1C(=O)CC2(CCN(CCCC(=O)c3ccc(F)cc3)CC2)C1=O	> 100 µM	> 100 µM	–	> 100 µM	> 100 µM	> 100 µM	> 100 µM	> 100 µM	> 100 µM	> 100 µM	–
O=C(NC1CCN(Cc2ccccc2)CC1)c1ccccc1I	–	> 100 µM	> 100 µM	41.1 µM	36.7 µM	72.8 µM	> 100 µM	36.5 µM	–	> 100 µM	92.4 µM
Nc1nc(Cl)nc2c1ncn2C1CCC(CO)O1 (stereo not given)	> 100 µM	> 100 µM	–	–	> 100 µM	> 100 µM	–	> 100 µM	> 100 µM	> 100 µM	> 100 µM
Cc1cc2nc3c(C#N)c(-c4ccccc4)cc(Nc4cccc(C(F)(F)F)c4)n3c2cc1C	24.7 µM	25.2 µM	37.9 µM	16.2 µM	22.3 µM	26.5 µM	16.8 µM	50.6 µM	22.5 µM	80.7 µM	–
Cn1c(=O)c2c(nc3sc4ncccc4c(=O)n32)n(C)c1=O	> 100 µM	> 100 µM	> 100 µM	> 100 µM	> 100 µM	> 100 µM	–	> 100 µM	> 100 µM	> 100 µM	> 100 µM
CCC(C)(C)c1ccc(Oc2cccc(C(=O)O)c2)cc1	> 100 µM	> 100 µM	> 100 µM	> 100 µM	> 100 µM	> 100 µM	> 100 µM	> 100 µM	> 100 µM	> 100 µM	–
CC1(CC(=O)OC(C#C[Si](C)(C)C)Cc2ccccc2)OCCO1 (stereo not given)	> 100 µM	> 100 µM	> 100 µM	> 100 µM	> 100 µM	> 100 µM	> 100 µM	> 100 µM	> 100 µM	> 100 µM	–
N=c1c2ccccc2nc2oc3ccc(Cl)cc3n12	> 100 µM	61.5 µM	> 100 µM	> 100 µM	> 100 µM	34.6 µM	97 µM	> 100 µM	–	> 100 µM	–
CCOC(=O)c1cc(Cl)ccc1OC(N)=O	–	> 100 µM	> 100 µM	–	> 100 µM	> 100 µM	> 100 µM	> 100 µM	> 100 µM	> 100 µM	> 100 µM
O=C1/C(=C/c2cccc([N+](=O)[O-])c2)N=C(c2ccccc2)N1c1ccc2c(c1)Sc1cc(N3C(=O)/C(=C/c4cccc([N+](=O)[O-])c4)N=C3c3ccccc3)ccc1N2	35 µM	–	62.9 µM	89.8 µM	> 100 µM	–	> 100 µM	> 100 µM	37.9 µM	40.2 µM	85.2 µM
COc1cc(C2SC(N)=Nc3c2c(C)nn3C(=O)Cc2ccccc2)ccc1O (stereo not given)	> 100 µM	> 100 µM	> 100 µM	> 100 µM	> 100 µM	> 100 µM	> 100 µM	> 100 µM	> 100 µM	> 100 µM	–
CC(C)(C)C1=NN=C2c3ccccc3C(=O)C21 (stereo not given)	–	> 100 µM	> 100 µM	> 100 µM	> 100 µM	> 100 µM	> 100 µM	> 100 µM	> 100 µM	> 100 µM	63.7 µM
COc1ccc(-n2nnnc2C2(Nc3ccccc3)CCN(Cc3ccccc3)CC2)cc1	–	28 µM	92 µM	32.3 µM	25.1 µM	> 100 µM	45.8 µM	26.6 µM	23.3 µM	68.5 µM	–
CCCC[Si](CCCC)(CCCC)O[C@@H](/C=C/C(=O)OCC)[C@H](Cc1ccccc1)O[Si](CCCC)(CCCC)CCCC	> 100 µM	> 100 µM	> 100 µM	> 100 µM	> 100 µM	> 100 µM	> 100 µM	–	> 100 µM	> 100 µM	> 100 µM
COc1ccc(C2Oc3c(cccc3OC)C=C2[N+](=O)[O-])cc1 (stereo not given)	13.1 µM	5.66 µM	25.6 µM	13.6 µM	5.81 µM	–	26.4 µM	4.37 µM	10.8 µM	16.6 µM	–
